In patent US20190270733A1, “Quinoline and Isoquinoline Based HDAC Inhibitors and Methods of Use Thereof” (Reaction Biology Corp., priority 2018, published 2019):

What was measured:
Human HDAC1 = target: T1, Human HDAC1 (Homo sapiens, UniProt Q13547); assay: Biochemical HDAC assay, HDAC1; settings: incubation time 120 min
T1 construct: full-length with a C-terminal His-tag and a C-terminal FLAG-tag; His-tag (C); FLAG-tag (C); made in house
Description: Human HDAC1 (GenBank Accession No. NM_004964), full-length with a C-terminal His-tag and a C-terminal FLAG-tag, MW=56 kDa, was expressed in a baculovirus expression system.
(§1) • I. Compound handling: Testing compounds were dissolved in 100% DMSO to a specific concentration. The serial dilution was conducted by epMotion 5070 in DMSO. • II. HDAC reaction buffer: 50 mM Tris-HCl, pH8.0, 137 mM NaCl, 2.7 mM KCl, and 1 mM MgCl2, Added fresh: 1 mg/ml BSA, 1% DMSO. • III. Substrate: Fluorogenic HDAC General Substrate for HDAC1, 2, 3, 6, 10, 11 ans Sirt1, 2 and 3: Arg-His-Lys-Lys(Ac); HDAC8 only substrate: Arg-His-Lys(Ac)-Lys(Ac); Class2A Substrate (HDAC4, 5, 7 and 9): Acetyl-Lys(trifluoroacetyl)-AMC; Sirt5 substrate: Ac-Lys(succinyl)-AMC. • IV. General Reaction Procedure: (Standard IC50 determination) • a. Delivered 2× enzyme in wells of reaction plate except No Enzyme (No En) control wells. Add buffer in No En wells. • b. Delivered compounds in 100% DMSO into the enzyme mixture by Acoustic technology (Echo550; nanoliter range). Spin down and pre-incubation. • c. Delivered 2× Substrate Mixture (Fluorogenic HDAC Substrate and co-factor (500 μM of Nicotinamide adenine dinucleotide (NAD^+) in all Sirt assay) in all reaction wells to initiate the reaction. Spin and shake. • d. Incubated for 1-2 hr. at 30° C. with seal. • e. Added Developer with Trichostatin A (or TMP269 or NAD^+) to stop the reaction and to generate fluorescent color. • f. Fluorescence was read (excitatory, 360; emission, 460) using the EnVision Multilabel Plate Reader (Perkin Elmer) • g. Endpoint reading was taken for analysis after the development reaches plateau. • V. Data Analysis: The percentages of enzyme activity (relative to DMSO controls) and IC50 values were calculated using the GraphPad Prism 4 program based on a sigmoidal dose-response equation.
(§2) Compounds with indicated doses was tested in the biochemical assays of HDAC1, HDAC2, HDAC3, HDAC4, HDAC5, HDAC6, HDAC7, HDAC8, HDAC9, HDAC10, or HDAC11 enzyme. The incubation time in HDAC1/2 assays are 120 min, and that for other HDACs are 10 min. The curve fit and IC50 values were calculated using the GraphPad Prism 4 program based on a sigmoidal dose-response equation.

Human HDAC2 = target: T2, Human HDAC2 (Homo sapiens, UniProt Q92769); assay: Biochemical HDAC assay, HDAC2; settings: incubation time 120 min
T2 construct: full-length with a C-terminal His-tag; His-tag (C); made in house
T2 sequence (Q92769 whole entry): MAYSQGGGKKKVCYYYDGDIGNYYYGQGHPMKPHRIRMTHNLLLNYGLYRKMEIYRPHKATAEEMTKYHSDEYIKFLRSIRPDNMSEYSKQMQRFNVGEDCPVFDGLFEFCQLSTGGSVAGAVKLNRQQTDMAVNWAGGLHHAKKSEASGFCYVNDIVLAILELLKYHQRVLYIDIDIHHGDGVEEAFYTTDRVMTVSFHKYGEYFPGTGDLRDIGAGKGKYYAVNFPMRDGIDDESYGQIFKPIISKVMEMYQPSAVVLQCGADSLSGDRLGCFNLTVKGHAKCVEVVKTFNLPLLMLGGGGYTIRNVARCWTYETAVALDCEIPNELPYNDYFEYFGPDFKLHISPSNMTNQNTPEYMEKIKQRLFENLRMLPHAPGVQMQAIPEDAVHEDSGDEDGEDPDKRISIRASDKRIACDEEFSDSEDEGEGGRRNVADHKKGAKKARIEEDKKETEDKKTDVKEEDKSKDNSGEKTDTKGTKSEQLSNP
Description: Human HDAC2 (GenBank Accession No. NM_001527), full-length with a C-terminal His-tag, MW=56 kDa, was expressed in a baculovirus expression system.
as §1, §2

[1] = target: T3, Complex of human HDAC3 and human NCOR2 (Homo sapiens, UniProt O15379); assay: Biochemical HDAC assay, HDAC3; settings: incubation time 10 min
T3 construct: full-length with a C-terminal His tag; His tag (C); made in house
T3 sequence (O15379 whole entry): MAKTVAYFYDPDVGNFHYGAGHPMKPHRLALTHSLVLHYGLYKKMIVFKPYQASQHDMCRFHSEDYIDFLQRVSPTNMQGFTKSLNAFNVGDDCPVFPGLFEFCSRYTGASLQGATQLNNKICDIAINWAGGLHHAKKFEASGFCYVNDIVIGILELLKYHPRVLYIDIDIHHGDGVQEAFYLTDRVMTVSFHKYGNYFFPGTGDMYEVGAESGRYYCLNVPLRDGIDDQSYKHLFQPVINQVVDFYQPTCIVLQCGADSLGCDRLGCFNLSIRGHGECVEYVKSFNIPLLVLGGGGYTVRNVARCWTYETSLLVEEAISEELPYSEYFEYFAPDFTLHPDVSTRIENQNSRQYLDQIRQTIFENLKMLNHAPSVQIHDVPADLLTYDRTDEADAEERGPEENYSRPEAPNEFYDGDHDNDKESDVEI
T3 sequence (Q9Y618 395-489 partner limits assumed): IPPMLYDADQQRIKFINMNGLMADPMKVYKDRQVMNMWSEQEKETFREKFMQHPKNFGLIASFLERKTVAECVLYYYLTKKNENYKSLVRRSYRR
Description: Complex of human HDAC3 (GenBank Accession No. NM_003883), full-length with a C-terminal His tag, MW=49.7 kDa, and human NCOR2 (amino acid 395-489) (GenBank Accession No. NM_006312), N-terminal GST tag, MW=37.6 kDa, was co-expressed in a baculovirus expression system.
as §1, §2

Recombinant human HDAC6 = target: T4, Recombinant human HDAC6 (Homo sapiens, UniProt Q9UBN7); assay: Biochemical HDAC assay, HDAC6; settings: incubation time 10 min
T4 construct: full-length, MW=180 kDa; GST tag (N); made in house; host or cells: Sf9 insect cells (baculovirus)
T4 sequence (Q9UBN7 1-1215): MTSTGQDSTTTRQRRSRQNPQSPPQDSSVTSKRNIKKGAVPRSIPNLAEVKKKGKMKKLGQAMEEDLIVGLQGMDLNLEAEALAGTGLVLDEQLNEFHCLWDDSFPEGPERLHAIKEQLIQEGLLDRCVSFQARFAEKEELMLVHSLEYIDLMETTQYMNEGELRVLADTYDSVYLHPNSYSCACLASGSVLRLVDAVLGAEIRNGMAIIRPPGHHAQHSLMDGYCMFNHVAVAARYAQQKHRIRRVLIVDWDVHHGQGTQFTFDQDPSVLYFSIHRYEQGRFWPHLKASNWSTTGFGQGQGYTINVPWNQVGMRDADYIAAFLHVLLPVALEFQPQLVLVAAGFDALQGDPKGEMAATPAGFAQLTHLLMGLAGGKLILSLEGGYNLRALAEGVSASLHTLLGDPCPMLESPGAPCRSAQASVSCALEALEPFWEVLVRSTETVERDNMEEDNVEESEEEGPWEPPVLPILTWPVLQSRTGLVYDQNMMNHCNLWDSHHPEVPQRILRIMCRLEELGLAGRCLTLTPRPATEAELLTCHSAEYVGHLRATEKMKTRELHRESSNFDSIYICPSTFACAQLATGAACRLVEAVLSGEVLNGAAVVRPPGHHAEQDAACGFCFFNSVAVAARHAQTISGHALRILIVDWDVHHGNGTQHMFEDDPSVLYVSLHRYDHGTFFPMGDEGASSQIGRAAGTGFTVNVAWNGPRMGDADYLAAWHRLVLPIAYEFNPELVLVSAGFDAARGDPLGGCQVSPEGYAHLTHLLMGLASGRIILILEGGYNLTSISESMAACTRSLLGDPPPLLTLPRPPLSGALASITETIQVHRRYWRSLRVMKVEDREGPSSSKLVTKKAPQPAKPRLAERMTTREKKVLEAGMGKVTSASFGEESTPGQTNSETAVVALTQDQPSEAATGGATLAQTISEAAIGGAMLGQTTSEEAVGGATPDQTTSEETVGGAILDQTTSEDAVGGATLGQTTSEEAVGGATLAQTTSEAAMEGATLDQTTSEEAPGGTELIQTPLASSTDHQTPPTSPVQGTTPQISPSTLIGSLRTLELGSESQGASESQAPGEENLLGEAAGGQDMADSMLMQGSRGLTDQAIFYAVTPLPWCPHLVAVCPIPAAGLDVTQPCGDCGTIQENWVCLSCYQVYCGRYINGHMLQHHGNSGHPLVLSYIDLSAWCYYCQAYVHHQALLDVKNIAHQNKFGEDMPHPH
Description: Recombinant human HDAC6 (GenBank Accession No. BC069243), full-length, MW=180 kDa, was expressed by baculovirus in Sf9 insect cells using an N-terminal GST tag.
as §1, §2

Human HDAC8 = target: T5, Human HDAC8 (Homo sapiens, UniProt Q9BY41); assay: Biochemical HDAC assay, HDAC8; settings: incubation time 10 min
T5 construct: full-length with a C-terminal His tag; His tag (C); made in house
T5 sequence (Q9BY41 1-377): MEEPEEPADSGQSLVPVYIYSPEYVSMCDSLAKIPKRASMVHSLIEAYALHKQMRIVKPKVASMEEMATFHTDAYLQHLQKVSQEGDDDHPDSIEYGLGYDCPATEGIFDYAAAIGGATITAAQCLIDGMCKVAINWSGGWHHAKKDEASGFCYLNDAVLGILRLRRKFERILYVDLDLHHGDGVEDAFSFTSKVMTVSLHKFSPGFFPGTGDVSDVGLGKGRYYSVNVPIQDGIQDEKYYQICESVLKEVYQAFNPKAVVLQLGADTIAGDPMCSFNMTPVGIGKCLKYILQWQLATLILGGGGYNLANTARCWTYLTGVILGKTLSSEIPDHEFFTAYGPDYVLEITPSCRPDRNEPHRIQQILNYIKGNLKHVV
Description: Human HDAC8 (GenBank Accession No. NM_018486), full-length with a C-terminal His tag, MW=46.4 kDa, was expressed in a baculovirus expression system.
as §1, §2

T1 sequence (Q13547 whole entry): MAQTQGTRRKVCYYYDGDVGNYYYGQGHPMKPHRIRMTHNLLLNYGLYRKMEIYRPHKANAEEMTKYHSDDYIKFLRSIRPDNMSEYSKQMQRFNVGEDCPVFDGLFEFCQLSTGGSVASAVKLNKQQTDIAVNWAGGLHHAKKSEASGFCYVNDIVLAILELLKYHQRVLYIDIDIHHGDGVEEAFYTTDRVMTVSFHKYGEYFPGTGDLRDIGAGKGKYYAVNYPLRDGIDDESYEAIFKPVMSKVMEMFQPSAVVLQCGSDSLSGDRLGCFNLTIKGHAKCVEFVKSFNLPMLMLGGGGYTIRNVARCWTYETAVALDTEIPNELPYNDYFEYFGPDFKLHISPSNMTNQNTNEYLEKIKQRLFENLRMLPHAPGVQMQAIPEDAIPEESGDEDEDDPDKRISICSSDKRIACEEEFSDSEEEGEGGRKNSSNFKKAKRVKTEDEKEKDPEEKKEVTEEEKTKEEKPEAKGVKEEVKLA

Question: What does the source list for `Nc1ccc(-c2cccs2)cc1NC(=O)c1ccc2c(c1)CCNC2=O` [Example 1, N-(2-amino-5-(thiophen-2-yl)phenyl)-1-oxo-1,2,3,4-tetrahydroisoquinoline-6-carboxamide]?
Answer: IC50 (Human HDAC1): 0.0018 µM; IC50 (Human HDAC2): 0.024 µM; IC50 [1]: > 10 µM; IC50 (Recombinant human HDAC6): > 10 µM; IC50 (Human HDAC8): > 10 µM

Question: `Nc1ccc(-c2cccs2)cc1NC(=O)c1ccc2c(c1)CCN(CC1CCOCC1)C2=O` [Example 2, N-(2-amino-5-(thiophen-2-yl)phenyl)-1-oxo-2-((tetrahydro-2H-pyran-4-yl)methyl)-1,2,3,4-tetrahydroisoquinoline-6-carboxamide] was tested. Which IC50 (Human HDAC1) did it give?
Answer: 0.0019 µM

Question: And the IC50 (Human HDAC2)?
Answer: 0.023 µM

Question: And the IC50 [1]?
Answer: > 10 µM

Question: And the IC50 (Recombinant human HDAC6)?
Answer: > 10 µM

Question: What about the IC50 (Human HDAC8) of the same compound?
Answer: > 10 µM

Question: What does the source list for `Nc1ccc(-c2cccs2)cc1NC(=O)c1ccc2c(c1)CCN(C(=O)C1CCOCC1)C2` [Example 3, N-(2-amino-5-(thiophen-2-yl)phenyl)-2-(tetrahydro-2H-pyran-4-carbonyl)-1,2,3,4-tetrahydroisoquinoline-6-carboxamide]?
Answer: IC50 (Human HDAC1): 0.0026 µM; IC50 (Human HDAC2): 0.025 µM; IC50 [1]: > 10 µM; IC50 (Recombinant human HDAC6): > 10 µM; IC50 (Human HDAC8): > 10 µM

Question: For `Nc1ccc(-c2cccs2)cc1NC(=O)c1ccc2c(c1)CCN(C(=O)c1cccnc1)C2` [Example 4, N-(2-amino-5-(thiophen-2-yl)phenyl)-2-nicotinoyl-1,2,3,4-tetrahydroisoquinoline-6-carboxamide], which IC50 (Human HDAC1) is on record?
Answer: 0.003 µM

Question: And the IC50 (Human HDAC2)?
Answer: 0.039 µM

Question: What about the IC50 [1] of the same compound?
Answer: > 10 µM

Question: What about the IC50 (Recombinant human HDAC6) of the same compound?
Answer: > 10 µM

Question: And the IC50 (Human HDAC8)?
Answer: > 10 µM
